From ChEMBL document CHEMBL4371039, “Synthesis and biological evaluation of novel analogues of Gly-l-Pro-l-Glu (GPE) as neuroprotective agents” (Bioorg Med Chem Lett, 2019) come the findings set out here.

Calls of active or inactive are those of the source. No cut-off for these calls is given here.

Series [1] has as its system THP-1. The experiment in a line: Cytotoxicity against human THP1 cells assessed as effect on cell viability up to 400 uM measured after 6 to 48 hrs by MTT assay. The series is classed as cell-based. (Formazan colour is commonly taken as a measure of viable cells.)
For series [2], the system named is THP-1. The experiment in a line: Neuroprotective activity against Abeta (25 to 35 residues)-induced cell death in human THP1 cells assessed as cell survival at 10 uM preincubated for 2 hrs followed by Abeta (25 to 35 residues) addition and measured after 24 hrs by MTT assay (reference value: 40%). The series is classed as functional. Conditions: read-out: Survival.

Series [3] in a line: Half life in human plasma. The series is classed as ADME, cell-free.
The nature of series [4]: Solubility of the compound in water. The series is classed as physicochemical. Conditions: buffer.
Series [5] relates to THP-1. Briefly: Neuroprotective activity against H2O2-induced cell death in human THP1 cells assessed as cell survival at 10 uM preincubated for 2 hrs followed by H2O2 addition and measured after 24 hrs by MTT assay (reference value: 43%). The series is classed as functional. Conditions: read-out: Survival.
The test system of series [6] is THP-1. Briefly: Antiinflammatory activity in PMA-differentiated human THP1 cells assessed as reduction in IL-1beta expression at 10 uM preincubated for 4 hrs followed by PMA addition and measured after 20 hrs by Trizol reagent based RT-PCR analysis. It counts as functional, cell-based.
Series [7] concerns THP-1. The experiment in a line: Antiinflammatory activity in PMA-differentiated human THP1 cells assessed as reduction in LPS-induced IL-1beta expression at 10 uM preincubated for 2 hrs followed by LPS addition and measured after 24 hrs by Trizol reagent based RT-PCR analysis. It counts as functional, cell-based.
Series [8] has as its system THP-1. The experiment in a line: Antiinflammatory activity in PMA-differentiated human THP1 cells assessed as reduction in IL-18 expression at 10 uM preincubated for 4 hrs followed by PMA addition and measured after 20 hrs by Trizol reagent based RT-PCR analysis. The series is classed as functional, cell-based.
Series [9] concerns THP-1. The experiment in a line: Antiinflammatory activity in PMA-differentiated human THP1 cells assessed as reduction in MCP1 expression at 10 uM preincubated for 4 hrs followed by PMA addition and measured after 20 hrs by Trizol reagent based RT-PCR analysis. It counts as functional, cell-based.
The test system of series [10] is THP-1. Briefly: Immunostimulatory activity in PMA-differentiated human THP1 cells assessed as increase in LPS-induced IL-4 expression at 10 uM preincubated for 2 hrs followed by LPS addition and measured after 24 hrs by Trizol reagent based RT-PCR analysis. The series is classed as functional, cell-based.
For series [11], the system named is THP-1. Briefly: Antiinflammatory activity in human THP1 cells assessed as reduction in LPS-induced TNFalpha expression at 10 uM preincubated for 2 hrs followed by LPS addition and measured after 24 hrs by Trizol reagent based RT-PCR analysis. It counts as functional, cell-based.
The test system of series [12] is THP-1. The experiment in a line: Antiinflammatory activity in human THP1 cells assessed as reduction in LPS-induced IL-1beta expression at 10 uM preincubated for 2 hrs followed by LPS addition and measured after 24 hrs by Trizol reagent based RT-PCR analysis. The series is classed as functional, cell-based.
Series [13] concerns THP-1. Briefly: Antiinflammatory activity in PMA-differentiated human THP1 cells assessed as reduction in TNFalpha expression at 10 uM preincubated for 4 hrs followed by PMA addition and measured after 20 hrs by Trizol reagent based RT-PCR analysis. The series is classed as functional, cell-based.
Series [14] concerns THP-1. The experiment in a line: Antiinflammatory activity in PMA-differentiated human THP1 cells assessed as reduction in LPS-induced IL18 expression at 10 uM preincubated for 2 hrs followed by LPS addition and measured after 24 hrs by Trizol reagent based RT-PCR analysis. The series is classed as functional, cell-based.
Series [15] deals with THP-1. Briefly: Antiinflammatory activity in human THP1 cells assessed as reduction in Abeta (25 to 35 residues)-induced IL-1beta expression at 10 uM preincubated for 2 hrs followed by Abeta (25 to 35 residues) addition and measured after 24 hrs by Trizol reagent based RT-PCR analysis. The series is classed as functional, cell-based.
Series [16] has as its system THP-1. The experiment in a line: Antiinflammatory activity in human THP1 cells assessed as reduction in LPS-induced IL18 expression at 10 uM preincubated for 2 hrs followed by LPS addition and measured after 24 hrs by Trizol reagent based RT-PCR analysis. It counts as functional, cell-based.
The subject of series [17] is THP-1. Briefly: Antiinflammatory activity in human THP1 cells assessed as reduction in Abeta (25 to 35 residues)-induced IL18 expression at 10 uM preincubated for 2 hrs followed by Abeta (25 to 35 residues) addition and measured after 24 hrs by Trizol reagent based RT-PCR analysis. The series is classed as functional, cell-based.
Series [18] concerns THP-1. Briefly: Antiinflammatory activity in human THP1 cells assessed as reduction in Abeta (25 to 35 residues)-induced TNFalpha expression at 10 uM preincubated for 2 hrs followed by Abeta (25 to 35 residues) addition and measured after 24 hrs by Trizol reagent based RT-PCR analysis. The series is classed as functional, cell-based.
Series [19] relates to THP-1. Briefly: Immunostimulatory activity in PMA-differentiated human THP1 cells assessed as increase in LPS-induced IL-10 expression at 10 uM preincubated for 2 hrs followed by LPS addition and measured after 24 hrs by Trizol reagent based RT-PCR analysis. It counts as functional, cell-based.
Series [20] relates to THP-1. The experiment in a line: Immunostimulatory activity in PMA-differentiated human THP1 cells assessed as increase in TNFalpha expression at 10 uM preincubated for 4 hrs followed by PMA addition and measured after 20 hrs by Trizol reagent based RT-PCR analysis. It counts as functional, cell-based.
Series [21] concerns THP-1. The experiment in a line: Antiinflammatory activity in PMA-differentiated human THP1 cells assessed as reduction in IL4-induced CCL18 expression at 10 uM preincubated for 2 hrs followed by IL4 addition and measured after 6 hrs by Trizol reagent based RT-PCR analysis. The series is classed as functional, cell-based.
Series [22] relates to THP-1. The experiment in a line: Immunostimulatory activity in PMA-differentiated human THP1 cells assessed as increase in MCP1 expression at 10 uM preincubated for 4 hrs followed by PMA addition and measured after 20 hrs by Trizol reagent based RT-PCR analysis. It counts as functional, cell-based.
Series [23] relates to THP-1. Briefly: Antiinflammatory activity in human THP1 cells assessed as reduction in Abeta (25 to 35 residues)-induced MCP1 expression at 10 uM preincubated for 2 hrs followed by Abeta (25 to 35 residues) addition and measured after 24 hrs by Trizol reagent based RT-PCR analysis. It counts as functional, cell-based.
In series [24] the test system is THP-1. The experiment in a line: Antiinflammatory activity in PMA-differentiated human THP1 cells assessed as reduction in IL4-induced IL-10 expression at 10 uM preincubated for 2 hrs followed by IL4 addition and measured after 6 hrs by Trizol reagent based RT-PCR analysis. It counts as functional, cell-based.
Series [25] relates to THP-1. The experiment in a line: Antiinflammatory activity in PMA-differentiated human THP1 cells assessed as reduction in INFgamma/LPS-induced IL-1beta expression at 10 uM preincubated for 2 hrs followed by INFgamma/LPS addition and measured after 6 hrs by Trizol reagent based RT-PCR analysis. The series is classed as functional, cell-based.
Series [26] deals with THP-1. The experiment in a line: Antiinflammatory activity in PMA-differentiated human THP1 cells assessed as reduction in IL4-induced CCL22 expression at 10 uM preincubated for 2 hrs followed by IL4 addition and measured after 6 hrs by Trizol reagent based RT-PCR analysis. The series is classed as functional, cell-based.
The subject of series [27] is THP-1. The experiment in a line: Immunostimulatory activity in PMA-differentiated human THP1 cells assessed as increase in IL-1beta expression at 10 uM preincubated for 4 hrs followed by PMA addition and measured after 20 hrs by Trizol reagent based RT-PCR analysis. The series is classed as functional, cell-based.
Series [28] has as its system THP-1. The experiment in a line: Antiinflammatory activity in PMA-differentiated human THP1 cells assessed as reduction in INFgamma/LPS-induced IL-8 expression at 10 uM preincubated for 2 hrs followed by INFgamma/LPS addition and measured after 6 hrs by Trizol reagent based RT-PCR analysis. It counts as functional, cell-based.
The subject of series [29] is THP-1. The experiment in a line: Immunostimulatory activity in PMA-differentiated human THP1 cells assessed as increase in IL-18 expression at 10 uM preincubated for 4 hrs followed by PMA addition and measured after 20 hrs by Trizol reagent based RT-PCR analysis. The series is classed as functional, cell-based.

For `NCCN1CCC[C@H]1C(=O)N[C@@H](CCC(=O)O)C(=O)O.O=C(O)C(F)(F)F`, the Activity result in series [1] is given as “Non-Toxic”. Moreover, the viability at 10 µM in series [2] is 76%. For the same compound, the half-life – broadly, how long it takes for the measured level to halve – in series [3] is 6.6 h. Further, the solubility entry in [4] is “Soluble”.
With `NCCN1CCC[C@H]1C(=O)N[C@@H](CCC(=O)O)C(=O)O.O=C(O)C(F)(F)F.O=C(O)C(F)(F)F`, the Activity result in [1] was “Non-Toxic”. Also, in series [5], the viability at 10 µM was determined as 90%. This compound also had a half-life in series [3] of 11.8 h. Further, the solubility result in series [4] was “Soluble”.
With `NCC(=O)N1CCC[C@H]1C(=O)N[C@@H](CCC(=O)O)C(=O)O.O=C(O)C(F)(F)F.O=C(O)C(F)(F)F`, the outcome in series [6], in [7], in series [8], in series [9], in series [10] and in series [11] was Active. Besides, the outcome in [12], in [13], in [14], in series [15] and in series [19] was Active. The Activity entry in series [1] is reported as “Non-Toxic”. Besides, in [5], the viability at 10 µM stood at 100%. In series [3], the half-life was 4.5 h. Further, the solubility entry in [4] is “Soluble”. In addition, the outcome in [16], in [17] and in series [18] was inactive.
Consider `NCCN1CCC[C@H]1C(=O)N[C@@H](CCC(=O)O)C(=O)O`, for which the result in series [6], in [20], in series [8], in series [9], in series [22] and in series [12] was Active. Besides, the outcome in [23], in series [25], in series [13], in [27], in series [28] and in series [29] was Active. Also, the outcome in series [18] was Active. In addition, the result in series [21], in [24], in [26], in series [16] and in [17] was inactive.
